Patent US20170008888A1 (KYORIN PHARMACEUTICAL CO., LTD., priority 2014, published 2017)
Where two headings read alike, the source gives them in different places.

How the values were obtained:
Format in all cases: cell-based
[1] = tested on: diseased primary human lung fibroblasts; assay: Cytokine response by primary diseased human lung fibroblasts stimulated with IL-17A or IL-17F; settings: Fibroblast, 48 h
Description: Primary lung fibroblasts isolated from a patient diagnosed with asthma were obtained from Lonza (Allendale, N.J.) and maintained in FGM-2 fibroblast growth medium (Lonza). Cells were seeded at 1e5 cells/ml and incubated at 37° C. in a humidified atmosphere at 5% CO2 overnight to adhere. Cells were pre-treated with test compounds (10 μM down by ⅕ in a 3- or 4-point serial dilution series) for 1 h at 37° C. in a humidified atmosphere at 5% CO2. DMSO at a final concentration of 0.1% served as the non-inhibited control. Cells were stimulated with 50 ng/ml of either human recombinant IL-17A or IL-17F (eBioscience, San Diego, Calif.), for 48 h. Supernatant was then collected and analyzed for cytokine concentrations using the Bio-Plex Pro Human Cytokine 17-Plex Panel (Bio-Rad Laboratories, Hercules, Calif.) according to the manufacturer's instructions. Magnetic beads were measured on the Bio-Plex MAGPIX multiplex reader instrument using the accompanying xPONENT 4.2 acquisition software (Bio-Rad Laboratories). Data were analyzed via the Bio-Plex Manager software v6.1 (Bio-Rad Laboratories). Only four (+IL-17F) to six (+IL-17A) cytokines were in range of detection under the conditions used.
G-CSF concentrations were below the limit of detection when cells were stimulated with IL-17F.

[2] = tested on: primary asthmatic human bronchial epithelial cells; assay: IL-17A- or IL-17F-mediated cytokine response by primary asthmatic human bronchial epithelial cells; settings: Epithelial cell, 48 h, 48 h
Description: The virally immortalized, normal human bronchial epithelial cell line BEAS-2B was purchased from ATCC (Manassas, Va.). Primary bronchial epithelial cells isolated from a patient diagnosed with asthma were obtained from Lonza (Allendale, N.J.). Both cells were maintained in complete Bronchial Epithelial Cell Growth Medium (BEGM) (Lonza). Cells were seeded at 1e5 cells/ml and incubated at 37° C. in a humidified atmosphere at 5% CO2 overnight to adhere. Cells were pre-treated with test compounds (10 μM down by ⅕ in a 3- or 4-point serial dilution series) for 1 h at 37° C. in a humidified atmosphere at 5% CO2. DMSO at a final concentration of 0.1% served as the non-inhibited control. Budesonide (Selleck Chemicals, Houston, Tex.), a clinically approved glucocorticoid steroid for the treatment of asthma, was tested as a positive control at 0.25 μM. Cells were stimulated with 50 ng/ml of either human recombinant IL-17A or IL-17F (eBioscience, San Diego, Calif.), for 48 h. Supernatant was then collected and analyzed for cytokine concentrations using the Bio-Plex Pro Human Cytokine 17-Plex Panel (Bio-Rad Laboratories, Hercules, Calif.) according to the manufacturer's instructions. Magnetic beads were measured on the Bio-Plex MAGPIX multiplex reader instrument using the accompanying xPONENT 4.2 acquisition software (Bio-Rad Laboratories). Data were analyzed via the Bio-Plex Manager software v6.1 (Bio-Rad Laboratories). For the primary asthmatic bronchial epithelial cells, five (+IL-17F) to thirteen (+IL-17A) cytokines were in range of detection under the conditions used. […] Select cytokines were analyzed for comparison using the BEAS-2B cell line.
BLQ: cytokine levels were below limits of quantitation.

human CD4+ T cells = assay: Cytokines produced by human CD4+ T cells stimulated with PMA/ionomycin; settings: 10 μM compound, PMA/ionomycin 20 h
From the text: Freshly isolated human peripheral blood mononuclear cells (PBMCs) were purchased from Astarte Biologics (Redmond, Wash.). CD4+ T cells were isolated from the PBMCs using the EasySep Negative Selection Human CD4+ T Cell Enrichment Kit (Stemcell Technologies, Vancouver, Canada) according to manufacturer's instructions briefly as follows: Unwanted cells were specifically labeled with a cocktail of bispecific tetrameric antibody complexes (TAC) against dextran and cell surface antigens (CD8, CD14, CD16, CD19, CD20, CD36, CD56, CD66b, CD123, TCRγ/δ, glycophorin A). Labeled cells were then targeted for removal by incubation with dextran-coated magnetic particles, leaving the desired CD4+ T cells.
Human CD4+ T cells, isolated as shown in protocol A, were seeded at 2e6 cells/ml in RPMI 1640 containing 10% (v/v) charcoal-dextran treated, heat inactivated FBS (Omega Scientific, Tarzana, Calif.), 0.05 mM 2-Mercaptoethanol (Sigma-Aldrich, St. Louis, Mo.), and 1×Pen/Strep Amphotericin B (Lonza, Allendale, N.J.). Cells were pre-treated with test compounds (10 μM) for 1 h at 37° C. in a humidified atmosphere at 5% CO2. Cells were then stimulated with 50 ng/ml phorbol 12-myristate 13-acetate (PMA)(Sigma-Aldrich, St. Louis, Mo.)+1 μg/ml ionomycin (Life Technologies, Grand Island, N.Y.) for 20 h at 37° C. in a humidified atmosphere at 5% CO2. Supernatant was collected and analyzed using Bio-Plex Pro Human Th17 Cytokine 15-Plex Panel (Bio-Rad Laboratories, Hercules, Calif.) as per manufacturer's protocols. Magnetic beads were read on the Bio-Plex MAGPIX multiplex reader instrument using the accompanying xPONENT 4.2 acquisition software (Bio-Rad Laboratories, Hercules, Calif.). Data were analyzed via the Bio-Plex Manager software v6.1 (Bio-Rad Laboratories).
IL-1β, IL-2, IL-7, and IL-12 (p70) were below the limit of detection under conditions used. The concentrations of the observed analytes of the DMSO control, from top to bottom as listed, are as follows: 31, 585, 24178, 22, 48, 91, 728, 94, 156, 705, 15, 1045, 5501 pg/ml.

[3] = +50 ng/ml IL-17A, read-out: EC50 values (μM), G-CSF
[4] = +50 ng/ml IL-17A, read-out: EC50 values (μM), IL-6
[5] = +50 ng/ml IL-17A, read-out: EC50 values (μM), IL-8
[6] = +50 ng/ml IL-17A, read-out: EC50 values (μM), MCP-1
[7] = +50 ng/ml IL-17F, read-out: EC50 values (μM), IL-6
[8] = +50 ng/ml IL-17F, read-out: EC50 values (μM), IL-8

CCOc1cc(C(=O)N2CCC(N3CCN(C)CC3)CC2)ccc1Nc1cc2c(cn1)N(C)C(=O)c1ccccc1N2C [Compound 61]
EC50 [1, 3]: 1.99 µM
EC50 [1, 4]: 6.98 µM
EC50 [1, 5]: 0.54 µM
EC50 [1, 6]: 1.33 µM
EC50 [1, 7]: 4.45 µM
EC50 [1, 8]: 0.45 µM
EC50 ([1]; +50 ng/ml IL-17F, read-out: EC50 values (μM), MCP-1): 1.57 µM
EC50 [2, 3]: 1.66 µM
EC50 ([2]; +50 ng/ml IL-17A, read-out: EC50 values (μM), GM-CSF): 3.38 µM
EC50 ([2]; +50 ng/ml IL-17A, read-out: EC50 values (μM), IFN-γ): > 10 µM
EC50 ([2]; +50 ng/ml IL-17A, read-out: EC50 values (μM), IL-1β): 1.26 µM
EC50 ([2]; +50 ng/ml IL-17A, read-out: EC50 values (μM), IL-2): 10.5 µM
EC50 [2, 4]: 0.5 µM
EC50 [2, 5]: 0.51 µM
EC50 [2, 6]: 6.25 µM
EC50 ([2]; +50 ng/ml IL-17F, read-out: EC50 values (μM), G-CSF): 0.91 µM
EC50 ([2]; +50 ng/ml IL-17F, read-out: EC50 values (μM), IFN-γ): 0.6 µM
EC50 ([2]; +50 ng/ml IL-17F, read-out: EC50 values (μM), IL-1β): 0.79 µM
EC50 [2, 7]: 0.38 µM
EC50 [2, 8]: 0.52 µM
inhibition at 10 µM (human CD4+ T cells; read-out: Percent inhibition of G-CSF (relative to DMSO control)): 25.3%
inhibition at 10 µM (human CD4+ T cells; read-out: Percent inhibition of GM-CSF (relative to DMSO control)): 96.6%
inhibition at 10 µM (human CD4+ T cells; read-out: Percent inhibition of IFNγ (relative to DMSO control)): -11.8%
inhibition at 10 µM (human CD4+ T cells; read-out: Percent inhibition of IL-4 (relative to DMSO control)): -7.7%
inhibition at 10 µM (human CD4+ T cells; read-out: Percent inhibition of IL-5 (relative to DMSO control)): 21.9%
inhibition at 10 µM (human CD4+ T cells; read-out: Percent inhibition of IL-6 (relative to DMSO control)): 85.8%
inhibition at 10 µM (human CD4+ T cells; read-out: Percent inhibition of IL-10 (relative to DMSO control)): 97.6%
inhibition at 10 µM (human CD4+ T cells; read-out: Percent inhibition of IL-13 (relative to DMSO control)): 0.6%
inhibition at 10 µM (human CD4+ T cells; read-out: Percent inhibition of IL-17A (relative to DMSO control)): 45.4%
inhibition at 10 µM (human CD4+ T cells; read-out: Percent inhibition of MCP-1 (relative to DMSO control)): 65.5%
inhibition at 10 µM (human CD4+ T cells; read-out: Percent inhibition of MIP-1β (relative to DMSO control)): 59.2%
inhibition at 10 µM (human CD4+ T cells; read-out: Percent inhibition of TNFα (relative to DMSO control)): 50.9%
